Measurements reported in patent publication US20160271094A1, “Laquinimod Combination Therapy For Treatment Of Multiple Sclerosis” (priority 2013, published 2016).
Counter-ions that a name gives are not always drawn.

Legend:
Assay type in all cases: in vivo, mouse (C57BL/6)
[1] = system: MOG induced EAE; assay: Example 1B: laquinimod in combination with DMF in MOG-induced EAE; settings: Day 1 to 30; for % Inhibition 2: according to MMS; for % Inhibition 2 / % Inhibition 1 / % Inhibition 3: vs vehicle; for % Inhibition 1: according to incidence; for % Inhibition 3: activity according to GMS; for GMS value: group mean score; for MMS value: mean maximal score
[2] = system: MOG-induced EAE; assay: Example 1A: laquinimod alone or in combination with DMF in MOG-induced EAE (present tense)
[3] = system: MOG induced EAE; assay: Example 1C: suboptimal dose of laquinimod combined with MEF or EMF in MOG induced EAE; settings: for Group Mean Score / Incidence % inhibition / Incidence Total / Mean Disease Duration / Mean Maximal Score / Mean Onset days / Mortality Total % / GMS Inhibition % / MMS Inhibition %: study interrupted on day 21; for GMS Inhibition % / MMS Inhibition %: vs vehicle
[4] = DMF 45 mg/kg gavage bid (90 mg/kg/day)
[5] = EMF 135 mg/kg gavage twice a day from Day 1
[6] = EMF 135 mg/kg gavage twice a day from Day 1, listed as EFM
[7] = laquinimod 5 mg/kg/day gavage qd
[8] = laquinimod 10 mg/kg/day gavage qd
[9] = laquinimod 25 mg/kg/day gavage qd
[10] = laquinimod 5 mg/kg/day gavage (AM) from Day 1
[11] = laquinimod 25 mg/kg/day gavage (AM) from Day 1, positive control
[12] = MEF 90 mg/kg gavage twice a day from Day 1

SMILES: COC(=O)/C=C/C(=O)OC [DMF, dimethyl fumarate]
- Incidence [1, 4]: 13/15
- Mean Duration [1, 4]: 13.4 ± 6.2 days
- Mean Onset [1, 4]: 17.1 ± 6.3 days
- Mortality [1, 4]: 0/15
- % Inhibition 2 [1, 4]: 25.7%
- % Inhibition 1 [1, 4]: 13.3%
- % Inhibition 3 [1, 4]: 33.3%
- GMS value [1, 4]: 1.4 ± 0.9
- MMS value [1, 4]: 2.6 ± 1.4
- inhibition of disease severity ([2]; DMF 25 mg/kg oral QD alone): moderately effective

SMILES: CCOC(=O)/C=C/C(=O)OC [EMF, ethyl methyl fumarate]
- Group Mean Score [3, 5]: 0.51 ± 0.2
- Incidence % inhibition [3, 5]: 46.6%
- Incidence Total [3, 5]: 8/15
- Mean Disease Duration [3, 5]: 3.3 ± 0.9 days
- Mean Maximal Score [3, 5]: 1.2 ± 0.38
- Mean Onset days [3, 5]: 18.4 ± 1.0 days
- Mortality Total % [3, 5]: 0%
- Incidence % inhibition [3, 6]: 46.7%
- effectiveness in MOG induced EAE (conclusion) ([3]; EMF at 135 mg/kg BID alone): highly effective
- GMS Inhibition % [3, 5]: 47.7%
- MMS Inhibition % [3, 5]: 36.8%
- GMS Inhibition % [3, 6]: 47.4%

SMILES: CCN(C(=O)c1c(O)c2c(Cl)cccc2n(C)c1=O)c1ccccc1 [Laquinimod, laquinimod]
- % Inhibition 2 [1, 7]: 40.0%
- % Inhibition 2 [1, 8]: 82.9%
- % Inhibition 2 [1, 9]: 100.0%
- % Inhibition 1 [1, 7]: 33.3%
- % Inhibition 1 [1, 8]: 73.3%
- % Inhibition 1 [1, 9]: 100.0%
- % Inhibition 3 [1, 7]: 61.9%
- % Inhibition 3 [1, 8]: 90.5%
- % Inhibition 3 [1, 9]: 100%
- GMS value [1, 7]: 0.8 ± 0.7
- GMS value [1, 8]: 0.2 ± 0.5
- GMS value [1, 9]: 0.0 ± 0.0
- Incidence [1, 7]: 10/15
- Mean Duration [1, 7]: 8.0 ± 6.2 days
- Mean Onset [1, 7]: 22.7 ± 6.4 days
- Mortality [1, 7]: 0/15
- Incidence [1, 8]: 4/15
- Mean Duration [1, 8]: 1.8 ± 3.7 days
- Mean Onset [1, 8]: 28.9 ± 3.8 days
- Mortality [1, 8]: 0/15
- Incidence [1, 9]: 0/15
- Mean Duration [1, 9]: 0.0 ± 0.0 days
- Mean Onset [1, 9]: 0.0 ± 0.0 days
- Mortality [1, 9]: 0/15
- MMS value [1, 7]: 2.1 ± 1.7
- MMS value [1, 8]: 0.6 ± 0.2
- MMS value [1, 9]: 0.0 ± 0.0
- Group Mean Score [3, 10]: 0.64 ± 0.2
- Incidence % inhibition [3, 10]: 46.7%
- Incidence Total [3, 10]: 8/15
- Mean Disease Duration [3, 10]: 4.0 ± 1.2 days
- Mean Maximal Score [3, 10]: 1.3 ± 0.4
- Mean Onset days [3, 10]: 17.3 ± 1.24 days
- Mortality Total % [3, 10]: 0%
- Incidence % inhibition [3, 11]: 93.3%
- Incidence Total [3, 11]: 1/15
- Mean Disease Duration [3, 11]: 0.3 ± 0.3 days
- Mean Maximal Score [3, 11]: 0.1 ± 0.06
- Mean Onset days [3, 11]: 21.5 ± 0.5 days
- Mortality Total % [3, 11]: 0%
- EAE clinical signs (conclusion) ([3]; laquinimod at 25 mg/kg): significantly ameliorated EAE clinical signs
- efficacy in MOG-induced EAE (conclusion) ([3]; laquinimod at 5 and 25 mg/kg): dose-dependent efficacy
- GMS Inhibition % [3, 10]: 34.0%
- MMS Inhibition % [3, 10]: 31.6%
- GMS Inhibition % [3, 11]: 97.9%
- MMS Inhibition % [3, 11]: 94.7%
- inhibition of disease severity ([2]; laquinimod 0.06 mg/kg oral QD alone): moderately effective

SMILES: CCOC(=O)/C=C/C(=O)O [MEF, monoethyl fumarate]
- Group Mean Score [3, 12]: 1.23 ± 0.2
- Incidence % inhibition [3, 12]: 20%
- Incidence Total [3, 12]: 12/15
- Mean Disease Duration [3, 12]: 7.1 ± 1.0 days
- Mean Maximal Score [3, 12]: 2.3 ± 0.38
- Mean Onset days [3, 12]: 14.7 ± 1.0 days
- Mortality Total % [3, 12]: 0%
- alleviation of EAE disease signs (conclusion) ([3]; MEF at 90 mg/kg): not effective
- GMS Inhibition % [3, 12]: 26.8%
- MMS Inhibition % [3, 12]: −21.1%
- GMS Inhibition % ([3]; MEF 90 mg/kg gavage twice a day from Day 1, listed as Mono EF): −26.8%
